From patent US8658668B2, “PI3 kinase/mTOR dual inhibitor” (Eli Lilly and Company, priority 2011, dated 2014)

Assays:
S6RP(pS240/242) = experiment: Phosphorylated S6RP in U87MG cells; assay type: cell-based; settings: Homo sapiens, U-87 MG, n = 3, read-out: S6RP(pS240/242) Absolute IC50
Protocol: This homogeneous assay format uses immuno-sandwich capture of the phosphorylated analyte and then detection with antibody-coated Alphascreen beads to generate an amplified signal.
Maintain U87MG cells in U87MG growth medium consisting of DMEM (GIBCO 11965-092) supplemented with 10% fetal bovine serum (FBS, GIBCO, 10091-141), 1% nonessential amino acids (GIBCO, 11140-050) and 1% sodium pyruvate (GIBCO, 11360-070). Harvest cells using standard cell culture procedures and then count using Vi-Cell. Plate 100 μL of U87MG cells in growth medium (50,000 cells/well) into Costar #3596 96 well plates and incubate overnight at 37° C., 5% CO2.
Incubate for one h at 37° C., then remove the medium and add 50 μL of 1× SureFire Lysis Buffer (TGR Biosciences SureFire® Kit component) to each well and incubate at room temperature for 10 min with gentle shaking Transfer 6 μL lysate and 10 μL reaction mixture (60 parts reaction buffer/10 parts activation buffer/1 part each of donor and acceptor beads, Perkin Elmer, 6760617R) to a 384 well proxiplate (Perkin Elmer, 6006280) for the p-p70S6 kinase (Thr389) and p-AKT(Ser473) assays. Seal the plate and incubate at RT for 4 h. […] Read the plates on a Perkin Elmer EnVision equipped with a TurboModule using standard AlphaScreen® settings (Ex680 nm and Em520-620 nm). […]

pT308 AKT = experiment: In vivo target inhibition in U87MG tumors, pT308 AKT; settings: Mus musculus, U-87 MG; for inhibition at 0.5 mg/kg: 0.5 mg/kg oral; for inhibition at 1.5 mg/kg: 1.5 mg/kg oral; for inhibition at 3 mg/kg: 3 mg/kg oral; for inhibition at 6 mg/kg: 6 mg/kg oral; for inhibition at 10 mg/kg: 10 mg/kg oral; for inhibition at 12 mg/kg: 12 mg/kg oral
Protocol: Implant U87MG human glioblastoma cells (5×10^6) subcutaneously into the flank of athymic nude mice in 0.2 mL of matrigel. Ten days post-implantation, dose mice orally according to a time course, single dose/single time point, or dose response protocol for the determination of TMED50 (threshold minimum effective dose). Flash freeze tumors at harvest and collect blood for the determination of parent compound plasma exposure and the calculation of TMEC50 (threshold minimum effective concentration) in the case of dose response studies. Homogenize tumors in 500 μL of XY Lysis Buffer (10 μg/mL Leupeptin, 10 μg/mL Trypsin-Chymotrypsin Inhibitor, 10 μg/mL Tosyl phenyl-alanyl chloromethyl ketone, 10 μg/mL Aprotinin, 60 mM Beta-Glycerol Phosphate, 1% Triton X100, 25 mM Tris pH 7.5, 2.5 mM Pyrophosphate, 150 mM NaCl, 2 mM p-tosyl-L-arginine methyl ester, 15 mM para-nitrophenyl phosphate, 5 mM benzamidine, 1 mM sodium vanadate, 10 mM sodium fluoride, 50 μg/mL phenyl-methane sulfonyl fluoride, 1 mM 1,4-dithiothreitol (DTT), 15 mM EDTA pH 8.0, 5 mM EGTA pH 8.0, 1 μM Microcystin, 1 μM Okadaic Acid, and 1 Roche Complete protease inhibitor mini-tablet per 10 mL) using RNase Free Pellet Pestle (Kimble-Kontes). Aliquot lysates and either assay immediately or store at −80° C. for later testing. Use the multiplex format of Meso Scale Discovery (Gaithersburg, Md.) ELISA technology and measure in vivo target inhibition of PI3K and mTOR to assess effects on phosphorylation of the threonine 308 site of AKT, a downstream effector of PI3K; phosphorylation on the threonine 389 site of p70 S6K and on the serine 240/244 site of S6RP, downstream effectors of mTORC1; phosphorylation of the serine 473 site of AKT, a downstream effector of mTORC2. Add 20 μg of lysate to carbon electrode containing 96-well plates pre-spotted with the appropriate capture antibodies. Probe the protein of interest using a ruthenium labeled detection antibody. Pass current over the electrode in the presence of read buffer containing the co-reactant TPA, and quantitate and record the light generated by electro-chemiluminescence with the MSD Sector 6000 instrument. Calculate percent inhibitions relative to the vehicle control group and perform ANOVA analysis using the JMP software package for the determination of statistical significance.

[1] = test system: MAXF 1384 human tumor xenograft cells; experiment: Oncotest tumor clonogenic assay, MAXF 1384; assay type: cell-based; settings: colony formation, Mammary MAXF 1384, adeno carcinoma, pd, read-out: Absolute IC50
[2] = test system: LXFA 1584 human tumor xenograft cells; experiment: Oncotest tumor clonogenic assay, LXFA 1584; assay type: cell-based; settings: colony formation, NSCLC LXFA 1584, adeno carcinoma, pd, read-out: Absolute IC50
[3] = test system: LXFL 1072 human tumor xenograft cells; experiment: Oncotest tumor clonogenic assay, LXFL 1072; assay type: cell-based; settings: colony formation, NSCLC LXFL 1072, large cell lung carcinoma, pd, read-out: Absolute IC50
[4] = test system: CXF 676 human tumor xenograft cells; experiment: Oncotest tumor clonogenic assay, CXF 676; assay type: cell-based; settings: colony formation, Colon CXF 676, adeno carcinoma, md, read-out: Absolute IC50
[5] = test system: RXF 1220 human tumor xenograft cells; experiment: Oncotest tumor clonogenic assay, RXF 1220; assay type: cell-based; settings: colony formation, Renal RXF 1220, hypernephroma, pd, read-out: Absolute IC50

SMILES: CO[C@@H](C)Cn1c(=O)n(C)c2cnc3ccc(-c4cncc(C(C)(C)O)c4)cc3c21 [Example 1, 8-[5-(1-Hydroxy-1-methylethyl)pyridin-3-yl]-1-[(2S)-2-methoxypropyl]-3-methyl-1,3-dihydro-2H-imidazo[4,5-c]quinolin-2-one]
- IC50 (S6RP(pS240/242)): 19.1 nM
- inhibition at 0.5 mg/kg (pT308 AKT; 0.5 hr post dose): 23%
- inhibition at 0.5 mg/kg (pT308 AKT; 4 hr post dose): 1%
- inhibition at 1.5 mg/kg (pT308 AKT; 0.5 hr post dose): 28%
- inhibition at 1.5 mg/kg (pT308 AKT; 4 hr post dose): -8%
- inhibition at 3 mg/kg (pT308 AKT; 0.25 hr post dose): 28%
- inhibition at 3 mg/kg (pT308 AKT; 0.5 hr post dose): 43%
- inhibition at 3 mg/kg (pT308 AKT; 1 hr post dose): 7%
- inhibition at 3 mg/kg (pT308 AKT; 3 hr post dose): 7%
- inhibition at 3 mg/kg (pT308 AKT; 4 hr post dose): -2%
- inhibition at 6 mg/kg (pT308 AKT; 0.25 hr post dose): 47%
- inhibition at 6 mg/kg (pT308 AKT; 0.5 hr post dose): 61%
- inhibition at 6 mg/kg (pT308 AKT; 1 hr post dose): 41%
- inhibition at 6 mg/kg (pT308 AKT; 2 hr post dose): 32%
- inhibition at 6 mg/kg (pT308 AKT; 4 hr post dose): 1%
- inhibition at 6 mg/kg (pT308 AKT; 6 hr post dose): -4%
- inhibition at 6 mg/kg (pT308 AKT; 12 hr post dose): -16%
- inhibition at 10 mg/kg (pT308 AKT; 0.5 hr post dose): 88%
- inhibition at 10 mg/kg (pT308 AKT; 1 hr post dose): 71%
- inhibition at 10 mg/kg (pT308 AKT; 2 hr post dose): 53%
- inhibition at 10 mg/kg (pT308 AKT; 4 hr post dose): 44%
- inhibition at 10 mg/kg (pT308 AKT; 8 hr post dose): 13%
- inhibition at 12 mg/kg (pT308 AKT; 0.5 hr post dose): 79%
- inhibition at 12 mg/kg (pT308 AKT; 4 hr post dose): 43%
- IC50 [1]: 243 nM
- IC50 [2]: 85 nM
- IC50 [3]: 214 nM
- IC50 [4]: 350 nM
- IC50 [5]: 191 nM
